Values of other authors, collected in patent publication US20110263659A1, “Analogs of 1-Methylnicotinamide” (Cortria Corporation, priority 2008, published 2011).

Assays:
[1] = human subjects; studies from Smolenski et al.
[2] = test system: prostacyclin (PGI2) release; conditions: preclinical; PCT/IB06/004013, PCT/EP05/050057, US 11/715,660
[3] = di-hydro-MNA 1 mmol/kg s.c., HPLC

| Molecule | half life [1] [h] | ability to stimulate the release of prostacyclin (PGI2) [2] | increase of brain tissue levels of 1-MNA (factor) (di-hydro-MNA 1 mmol/kg s.c.) | increase in liver 1-MNA levels [3] [fold] | increase in plasma 1-MNA levels [3] [fold] | maximum 1-MNA levels in brain extracellular fluid (di-hydro-MNA 1-3 mmol/kg s.c.) [µM] |
| --- | --- | --- | --- | --- | --- | --- |
| 1-Methylnicotinamide [1-MNA] | 2 to 3 | ability to stimulate the release of prostacyclin (PGI2) | – | – | – | – |
| CN1C=CCC(C(N)=O)=C1 [di-hydro-MNA, 1,4-dihydro-1-methylnicotinamide] | – | – | twenty | 9 | 4 | > 10 |
